Entries after “also recorded” stand apart in the source; their conditions may differ. Like-named read-outs stand apart in the source and are kept apart here.
Assays:
[1] = Extractable organofluorine (EOF) and fluorine mass balance in plasma and tissues at 48 h; format: in vivo, rat; details: for concentration at 48 h: male, RccHan:WIST, rat, read-out: PFOA-fluorine equivalent
Method: Plasma and tissue samples taken at 48 h after exposure were subjected to EOF analysis. Extraction procedure followed the procedure described above with the exception that no mass labelled internal standards were spiked to the samples before extraction. The EOF content of the 1 mL extract was analyzed by combustion ion chromatography (CIC). Part of the extract (200 μL) was transferred to a LC vial with the addition of 10 μL of mass-labelled standards; after that, aqueous ammonium acetate (2 mM, 300 μL) was added to the vial for PFAS analysis using LC-MS/MS. The reported EOF concentrations as well as the concentration of PFOA for mass balance analysis were not recovery-corrected.
Levels of EOF in the sample extracts were determined with a combustion ion chromatography (CIC) system consisting of a combustion module (Analytik Jena, Germany), a 920 Absorber Module and a 930 Compact IC Flex ion chromatograph module (both from Metrohm, Switzerland). An ion exchange column (Metrosep A Supp 5–150/4.0), with carbonate buffer (64 mmol/L sodium carbonate and 20 mmol/L sodium bicarbonate) as the mobile phase, was used for the separation of anions; the absorber solution was water. The sample extract (100 μL) was set on a silica boat via an autosampler and placed into a furnace at 900–1000 °C. The combustion of the sample in the furnace converted organic fluorine and inorganic fluorine into hydrogen fluoride (HF), which was then trapped by MilliQ water. The fluoride concentration in the solution was analyzed using ion chromatography. […] Quantification was based on external calibration. The analytical conditions for ion chromatography have been reported elsewhere (Kärrman et al. [2021]).
The measured PFOA concentration (ng/mL) in the sample extract of the EOF analysis was converted to the corresponding fluoride-equivalent concentration (ng/mL F) using the following formula:1 CFPFAS=CPFAS*NF*AF/MWPFAS where CPFAS is the concentration of the target compound (i.e., PFOA), NF is the number of fluorine atoms in the target compound (i.e., 15), AF is the atomic weight of fluorine (g/mol, i.e., 19), and MWPFAS is the molecular weight of the target compound (i.e., 413). The sum of known extractable fluorine concentration (ΣCF_PFAS) was calculated by summing the fluorine concentrations from all individual PFASs. Values below limits of quantification (LOQ) were set for calculating ΣCF_PFAS. Levels of unidentified organofluorine were calculated by subtracting […], which in this present study only PFOA.

[2] = PFOA in plasma over time after inhalation or gavage of PFOA-coated house dust; format: in vivo, rat; details: for Cmax: male, RccHan:WIST, rat, plasma
[3] = PFOA in terminal plasma, lung lavage and tissues 48 h after dust exposure; format: in vivo, rat; details: for Kp at 48 h / concentration at 48 h: male, RccHan:WIST, rat
[4] = set-up: method as in Li et al. [2017]; details: rats; ref Li et al. [2017]; cited from earlier work
[5] = cited from earlier work
[6] = set-up: method as in Hinderliter et al. [2006]; details: ref Hinderliter et al. [2006], cited from earlier work
[7] = set-up: method as in Li et al. [2017]; details: humans, calculated; ref Li et al. [2017]; cited from earlier work

In the case of `O=C(O)C(F)(F)C(F)(F)C(F)(F)C(F)(F)C(F)(F)C(F)(F)C(F)(F)F` [PFOA, Perfluorooctanoic acid], the “Proportion of PFOA to EOF in plasma” value ([1]; both exposure groups) is reported as 65–71%, the “Contribution to EOF (%)” value ([1]; kidney, inhalation) is reported as 81% and the “Contribution to EOF (%)” value ([1]; kidney, oral) is reported as 83%. For the same molecule, the “Contribution to EOF (%)” value ([1]; liver, inhalation) was 87%, the “Contribution to EOF (%)” value ([1]; liver, oral) was 83% and the “Contribution to EOF (%)” value ([1]; lung lavage, inhalation) was 76%. For the same molecule, the “Contribution to EOF (%)” value ([1]; lung lavage, oral) was 84%, the “Contribution to EOF (%)” value ([1]; lung, inhalation) was 86% and the “Contribution to EOF (%)” value ([1]; lung, oral) was 74%. For the same molecule, the concentration at 48 h ([1]; 364 μg PFOA/kg BW, kidney, oral) was 2160 ± 130 ng/g, the concentration at 48 h ([1]; 364 μg PFOA/kg BW, liver, oral) was 6140 ± 340 ng/g and the concentration at 48 h ([1]; 364 μg PFOA/kg BW, lung, oral) was 1160 ± 210 ng/g. For the same molecule, the concentration at 48 h ([1]; 364 μg PFOA/kg BW, plasma, oral, not recovery-corrected) was 1420 ± 240 ng/mL, the concentration at 48 h ([1]; inhaled, 164 μg PFOA/kg BW, kidney, inhalation) was 2640 ± 530 ng/g and the concentration at 48 h ([1]; inhaled, 164 μg PFOA/kg BW, liver, inhalation) was 6950 ± 650 ng/g. It also gave a concentration at 48 h ([1]; inhaled, 164 μg PFOA/kg BW, lung, inhalation) of 21500 ± 2750 ng/g, a concentration at 48 h ([1]; inhaled, 164 μg PFOA/kg BW, plasma, inhalation, not recovery-corrected) of 1530 ± 170 ng/mL and a concentration at 48 h ([1]; lung lavage (BALF), 364 μg PFOA/kg BW, lung lavage, oral) of 210 ± 20 ng/mL. The concentration at 48 h ([1]; lung lavage (BALF), inhaled, 164 μg PFOA/kg BW, lung lavage, inhalation) was 6870 ± 430 ng/mL, the “Share of EOF levels explained by measured PFOA, all samples” value ([1]; plasma and tissues) was 65–87% and the “Contribution to EOF (%)” value ([1]; plasma, oral) was 65%. For the same molecule, the Cmax ([2]; inhaled or intranasal, inhalation group, n = 4, 164 μg PFOA/kg BW) was 3100 ± 320 ng/mL, the Cmax ([2]; oral gavage group, n = 4, 364 μg PFOA/kg BW) was 1730 ± 170 ng/mL and the “Time of Cmax post exposure” value ([2]; oral gavage group) was 3 h. The “Plasma PFOA (Cmax, 3 h) following inhalation compared to oral exposure” value ([2]; same deposition level of exposure) was “almost four times higher; also recorded: approximately four times higher”, the “Liver:plasma ratio of PFOA concentration” value ([3]; 48 h, inhalation) was 5.28 ± 1.3 and the “Kidney:plasma ratio of PFOA concentration” value ([3]; 48 h, oral gavage) was 1.72 ± 0.3. For the same molecule, the “Liver:plasma ratio of PFOA concentration” value ([3]; 48 h, oral gavage) was 4.89 ± 1.0, the “Levels of PFOA in plasma, liver and kidney, inhalation compared to oral” value ([3]; 48 h post exposure) was “twice as high” and the PFOA concentration ([3]; kidney, 48 h, inhalation) was 3.84 ± 0.8 µg/g. For the same molecule, the PFOA concentration ([3]; kidney, 48 h, oral gavage) was 3.15 ± 0.2 µg/g, the PFOA concentration ([3]; liver, 48 h, inhalation) was 10.1 ± 0.9 µg/g and the PFOA concentration ([3]; liver, 48 h, oral gavage) was 8.94 ± 0.5 µg/g. It also gave a PFOA concentration ([3]; lung, 48 h, inhalation) of 31.3 ± 4.0 µg/g, a PFOA concentration ([3]; lung, 48 h, oral gavage) of 1.68 ± 0.3 µg/g and a Kp at 48 h ([3]; kidney, 364 μg PFOA/kg BW, 48 h, oral gavage, read-out: Kidney:plasma ratio of PFOA concentration) of 1.72. For the same molecule, the concentration at 48 h ([3]; kidney, inhaled, 164 μg PFOA/kg BW, kidney, 48 h, inhalation) was 3840 ± 760 ng/g, the Kp at 48 h ([3]; kidney, inhaled, 164 μg PFOA/kg BW, 48 h, inhalation, read-out: Kidney:plasma ratio of PFOA concentration) was 2.02 ± 0.7 and the concentration at 48 h ([3]; kidney, po, 364 μg PFOA/kg BW, kidney, 48 h, oral gavage) was 3150 ± 190 ng/g. The Kp at 48 h ([3]; liver, 364 μg PFOA/kg BW, 48 h, oral gavage, read-out: Liver:plasma ratio of PFOA concentration) was 4.89, the concentration at 48 h ([3]; liver, inhaled, 164 μg PFOA/kg BW, liver, 48 h, inhalation) was 10100 ± 880 ng/g and the Kp at 48 h ([3]; liver, inhaled, 164 μg PFOA/kg BW, 48 h, inhalation, read-out: Liver:plasma ratio of PFOA concentration) was 5.28. The concentration at 48 h ([3]; liver, po, 364 μg PFOA/kg BW, liver, 48 h, oral gavage) was 8940 ± 500 ng/g, the concentration at 48 h ([3]; lung lavage (BALF), inhaled, 164 μg PFOA/kg BW, lung lavage, 48 h, inhalation) was 9980 ± 630 ng/mL and the concentration at 48 h ([3]; lung lavage (BALF), po, 364 μg PFOA/kg BW, lung lavage, 48 h, oral gavage) was 310 ± 20 ng/mL. For the same molecule, the concentration at 48 h ([3]; lung, inhaled, 164 μg PFOA/kg BW, lung, 48 h, inhalation) was 31300 ± 4000 ng/g, the concentration at 48 h ([3]; lung, po, 364 μg PFOA/kg BW, lung, 48 h, oral gavage) was 1680 ± 310 ng/g and the concentration at 48 h ([3]; plasma, inhaled, 164 μg PFOA/kg BW, terminal plasma, 48 h, inhalation of PFOA-coated dust (164 μg PFOA/kg BW)) was 2030 ± 320 ng/mL. For the same molecule, the concentration at 48 h ([3]; plasma, po, 364 μg PFOA/kg BW, terminal plasma, 48 h, oral gavage of PFOA-coated dust (364 μg PFOA/kg BW)) was 1870 ± 350 ng/mL, the “Distribution of PFOA to liver and kidney, inhalation compared to oral gavage” value ([3]; post exposure) was about 2.5 times and the PFOA concentration ([3]; terminal plasma, 48 h, inhalation of PFOA-coated dust (164 μg PFOA/kg BW)) was 1.97 ± 0.32 ng/µL. The Half-time [4] was “a few days”, the “Absorption over the gastrointestinal tract” value ([5]; oral exposure in animal studies, ammonium salt: APFO, ref DeWitt. [2015]) was “virtually all of it was absorbed” and the “Delivered dose absorbed over the gastro intestinal” value ([5]; oral exposure, ref US EPA [2016], Pizzurro et al. [2019], DeWitt. [2015]) was “more than 90%”. The “Concentration of PFOA in plasma” value ([6]; 6-h inhalation exposure, 1–25 mg/m^3 aerosolized solution) was 1000 to 25000 ng/mL, the “Plasma level in male compared to females” value ([6]; end of the 6-h exposure time) was “almost twice as high” and the Half-time [7] was 2.3–8.5 years.

Reference: article PMC9587079, “Bioavailability of inhaled or ingested PFOA adsorbed to house dust” (Environmental Science and Pollution Research International, 2022)
